Entries after “also recorded” stand apart in the source; their conditions may differ. Like-named read-outs stand apart in the source and are kept apart here.

For ten compounds, isozyme selectivity and IC50 results are on record in US5668152A, “Protein kinase C inhibitors” (priority 1995, dated 1997).

One experiment relates to PKC isozymes. The conditions noted are these: cited from earlier work.
A further experiment addresses protein kinase C beta-2 (Homo sapiens, UniProt P05771). Put plainly: PKC Enzyme assay, beta II isozyme. The class given is biochemical.
The target in a further experiment is protein kinase C eta (Homo sapiens, UniProt P24723). Put plainly: PKC Enzyme assay, eta isozyme. The experiment is classed as biochemical.
Sequence of protein kinase C eta (P24723 whole entry): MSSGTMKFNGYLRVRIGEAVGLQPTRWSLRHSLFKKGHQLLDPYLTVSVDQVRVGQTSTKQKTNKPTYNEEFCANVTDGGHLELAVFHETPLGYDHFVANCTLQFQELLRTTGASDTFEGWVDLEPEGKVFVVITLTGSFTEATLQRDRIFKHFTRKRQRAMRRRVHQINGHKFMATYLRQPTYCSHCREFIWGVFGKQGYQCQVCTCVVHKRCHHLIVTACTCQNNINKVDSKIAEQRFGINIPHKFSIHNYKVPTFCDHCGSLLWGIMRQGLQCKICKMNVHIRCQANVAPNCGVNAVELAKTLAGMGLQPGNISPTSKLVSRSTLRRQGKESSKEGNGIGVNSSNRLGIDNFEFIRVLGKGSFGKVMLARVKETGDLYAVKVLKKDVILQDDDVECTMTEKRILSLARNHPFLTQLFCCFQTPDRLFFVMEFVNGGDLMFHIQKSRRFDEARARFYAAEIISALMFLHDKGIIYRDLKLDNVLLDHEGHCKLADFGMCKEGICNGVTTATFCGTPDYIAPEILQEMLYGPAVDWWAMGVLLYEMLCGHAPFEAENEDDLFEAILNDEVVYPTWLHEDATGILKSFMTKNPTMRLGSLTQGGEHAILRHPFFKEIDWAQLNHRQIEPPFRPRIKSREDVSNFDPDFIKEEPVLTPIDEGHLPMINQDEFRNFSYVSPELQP
Another experiment has as its target protein kinase C delta (Homo sapiens, UniProt Q05655). Nature of the experiment: biochemical.
The next experiment deals with T1, protein kinase C epsilon (Homo sapiens, UniProt Q02156).
T1 sequence (Q02156 1-737): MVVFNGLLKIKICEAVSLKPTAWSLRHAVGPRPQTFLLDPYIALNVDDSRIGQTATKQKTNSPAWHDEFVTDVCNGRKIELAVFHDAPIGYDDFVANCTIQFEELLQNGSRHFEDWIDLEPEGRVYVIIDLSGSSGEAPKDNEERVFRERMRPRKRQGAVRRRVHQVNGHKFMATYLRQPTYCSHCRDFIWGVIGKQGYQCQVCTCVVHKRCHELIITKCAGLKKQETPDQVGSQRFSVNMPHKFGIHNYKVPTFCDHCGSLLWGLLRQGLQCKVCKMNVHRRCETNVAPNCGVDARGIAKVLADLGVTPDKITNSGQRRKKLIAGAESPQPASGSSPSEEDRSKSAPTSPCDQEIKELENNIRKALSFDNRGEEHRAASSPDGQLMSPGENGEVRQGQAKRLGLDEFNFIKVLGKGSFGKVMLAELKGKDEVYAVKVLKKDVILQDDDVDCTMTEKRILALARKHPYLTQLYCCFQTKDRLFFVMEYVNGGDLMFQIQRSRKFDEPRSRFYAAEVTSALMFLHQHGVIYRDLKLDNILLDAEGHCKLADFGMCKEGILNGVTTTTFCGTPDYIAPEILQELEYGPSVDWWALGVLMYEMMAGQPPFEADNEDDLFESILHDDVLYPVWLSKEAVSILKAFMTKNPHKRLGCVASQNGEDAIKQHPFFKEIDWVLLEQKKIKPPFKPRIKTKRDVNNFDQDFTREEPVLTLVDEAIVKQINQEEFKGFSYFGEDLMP
Put plainly: PKC Enzyme assay, epsilon isozyme. The experiment is classed as biochemical.

In another experiment the target is protein kinase C gamma (Homo sapiens, UniProt P05129). Put plainly: PKC Enzyme assay, gamma isozyme. The experiment is classed as biochemical.
In the next experiment the target is protein kinase C alpha (Homo sapiens, UniProt P17252). Nature of the experiment: PKC Enzyme assay, alpha isozyme. The experiment is classed as biochemical.
Another experiment has as its target protein kinase C beta-1 (Homo sapiens, UniProt P05771). Put plainly: PKC Enzyme assay, beta I isozyme. The class given is biochemical.
The next experiment deals with T2, protein kinase C zeta (Homo sapiens, UniProt Q05513).
T2 sequence (Q05513 1-592): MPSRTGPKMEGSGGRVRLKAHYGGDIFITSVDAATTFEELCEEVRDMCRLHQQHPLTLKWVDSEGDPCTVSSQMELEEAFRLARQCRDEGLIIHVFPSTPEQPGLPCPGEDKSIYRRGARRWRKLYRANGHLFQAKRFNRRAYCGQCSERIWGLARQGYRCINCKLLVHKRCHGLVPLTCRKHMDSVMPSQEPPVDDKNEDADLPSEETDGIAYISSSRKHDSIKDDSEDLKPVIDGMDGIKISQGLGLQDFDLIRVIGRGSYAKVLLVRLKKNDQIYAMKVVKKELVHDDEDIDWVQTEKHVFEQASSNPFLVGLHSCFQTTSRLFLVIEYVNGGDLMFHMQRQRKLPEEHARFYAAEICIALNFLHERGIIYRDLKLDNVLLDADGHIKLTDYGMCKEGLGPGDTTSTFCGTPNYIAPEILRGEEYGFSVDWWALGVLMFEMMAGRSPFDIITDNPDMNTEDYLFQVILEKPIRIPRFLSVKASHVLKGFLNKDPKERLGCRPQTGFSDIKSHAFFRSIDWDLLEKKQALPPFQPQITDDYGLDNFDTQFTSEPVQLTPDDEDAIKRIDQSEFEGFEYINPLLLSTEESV
Put plainly: PKC Enzyme assay, zeta isozyme. The experiment is classed as biochemical.

[1] abbreviates: PKC beta-2, 30 μM ATP, 30° C., 10 minutes, read-out: IC50 β2.
[2] abbreviates: PKC eta, 30 μM ATP, 30° C., 10 minutes, read-out: IC50 η.
The mark [3] stands for this setting: PKC delta, 30 μM ATP, 30° C., 10 minutes, read-out: IC50 δ.
[4] abbreviates: PKC epsilon, 30 μM ATP, 30° C., 10 minutes, read-out: IC50 ε.
Where [5] appears, read: PKC gamma, 30 μM ATP, 30° C., 10 minutes, read-out: IC50 γ.
[6] abbreviates: PKC alpha, 30 μM ATP, 30° C., 10 minutes, read-out: IC50 α.
Setting [7] is: PKC beta-1, 30 μM ATP, 30° C., 10 minutes, read-out: IC50 β1.
Where [8] appears, read: PKC zeta, 30 μM ATP, 30° C., 10 minutes, read-out: IC50 ζ.

Sequence of protein kinase C beta-2 (P05771 1-673 isoform P05771-2): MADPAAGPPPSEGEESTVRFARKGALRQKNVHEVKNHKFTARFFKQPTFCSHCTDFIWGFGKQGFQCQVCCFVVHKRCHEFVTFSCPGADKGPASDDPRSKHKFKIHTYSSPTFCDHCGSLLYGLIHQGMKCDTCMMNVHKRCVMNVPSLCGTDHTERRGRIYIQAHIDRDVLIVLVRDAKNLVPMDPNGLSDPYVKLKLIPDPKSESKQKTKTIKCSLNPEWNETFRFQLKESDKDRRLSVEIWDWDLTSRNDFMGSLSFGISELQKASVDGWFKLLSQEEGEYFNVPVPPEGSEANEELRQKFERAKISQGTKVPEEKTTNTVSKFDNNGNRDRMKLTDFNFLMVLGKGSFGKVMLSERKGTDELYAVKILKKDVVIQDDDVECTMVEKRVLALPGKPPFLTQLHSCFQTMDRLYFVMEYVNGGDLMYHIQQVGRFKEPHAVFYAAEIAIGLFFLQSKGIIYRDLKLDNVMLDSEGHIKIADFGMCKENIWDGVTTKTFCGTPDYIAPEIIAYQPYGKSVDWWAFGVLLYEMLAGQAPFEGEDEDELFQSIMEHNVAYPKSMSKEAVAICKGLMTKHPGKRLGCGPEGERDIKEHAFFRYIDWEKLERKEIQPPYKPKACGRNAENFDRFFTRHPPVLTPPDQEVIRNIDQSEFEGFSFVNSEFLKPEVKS
Sequence of protein kinase C beta-1 (P05771 whole entry): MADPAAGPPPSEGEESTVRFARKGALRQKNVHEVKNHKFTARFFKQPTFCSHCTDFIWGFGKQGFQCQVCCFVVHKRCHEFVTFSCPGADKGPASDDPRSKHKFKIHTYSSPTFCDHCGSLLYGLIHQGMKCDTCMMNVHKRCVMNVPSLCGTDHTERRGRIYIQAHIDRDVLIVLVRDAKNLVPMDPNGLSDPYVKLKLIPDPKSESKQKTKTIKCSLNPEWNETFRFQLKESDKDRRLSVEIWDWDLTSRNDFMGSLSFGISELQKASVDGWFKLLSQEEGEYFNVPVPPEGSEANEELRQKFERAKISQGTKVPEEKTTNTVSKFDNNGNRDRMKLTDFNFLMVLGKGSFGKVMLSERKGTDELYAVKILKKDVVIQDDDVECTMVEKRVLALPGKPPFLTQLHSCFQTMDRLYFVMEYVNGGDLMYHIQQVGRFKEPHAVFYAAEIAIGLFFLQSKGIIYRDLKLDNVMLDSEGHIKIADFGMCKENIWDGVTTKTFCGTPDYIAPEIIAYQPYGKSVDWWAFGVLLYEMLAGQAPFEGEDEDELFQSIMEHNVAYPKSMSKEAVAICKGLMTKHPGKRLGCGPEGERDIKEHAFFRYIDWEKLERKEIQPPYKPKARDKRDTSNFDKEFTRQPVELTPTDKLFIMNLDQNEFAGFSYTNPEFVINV
Sequence of protein kinase C delta (Q05655 whole entry): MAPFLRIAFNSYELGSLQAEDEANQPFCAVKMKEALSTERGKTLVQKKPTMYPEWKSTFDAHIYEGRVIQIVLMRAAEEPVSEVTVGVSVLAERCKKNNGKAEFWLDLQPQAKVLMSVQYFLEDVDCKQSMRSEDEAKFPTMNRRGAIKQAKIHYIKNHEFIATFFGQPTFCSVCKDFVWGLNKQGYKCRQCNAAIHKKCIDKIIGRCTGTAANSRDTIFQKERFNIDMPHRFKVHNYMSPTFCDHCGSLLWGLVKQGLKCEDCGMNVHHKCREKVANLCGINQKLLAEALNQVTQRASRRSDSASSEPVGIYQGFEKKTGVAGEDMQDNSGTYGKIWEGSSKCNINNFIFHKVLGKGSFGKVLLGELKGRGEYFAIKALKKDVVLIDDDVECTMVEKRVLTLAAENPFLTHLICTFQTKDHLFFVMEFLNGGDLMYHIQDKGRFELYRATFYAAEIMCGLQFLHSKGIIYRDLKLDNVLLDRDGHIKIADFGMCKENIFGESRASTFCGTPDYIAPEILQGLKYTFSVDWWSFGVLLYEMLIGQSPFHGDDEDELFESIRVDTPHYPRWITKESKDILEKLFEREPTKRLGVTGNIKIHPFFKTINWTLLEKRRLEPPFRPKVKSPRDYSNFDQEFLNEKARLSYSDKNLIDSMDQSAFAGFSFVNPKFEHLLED

As for `CN(C)CCCn1cc(C2=C(c3c[nH]c4ccccc34)C(=O)NC2=O)c2ccccc21` [3-[1-(3-dimethylaminopropyl)-indol-3-yl]-4-(1H-indol-3-yl)-1H-pyrrole-2,5-dione], the isozyme selectivity result was “slight selectivity for isozymes, alpha and beta versus delta, epsilon, and zeta; also recorded: no differences in the selectivity between alpha and beta-1 isozymes” in the experiment on PKC isozymes (Martiny-Baron et al. (1993)); “slight selectivity for the calcium dependent isozymes; also recorded: no isozyme selectivity between alpha, beta-1, beta-2, and gamma” in the experiment on PKC isozymes (Toullec et al. (1991)).

Broadly, the IC50 is the point on the concentration scale where inhibition reaches its midpoint. Take `CN(C)CCCN1CCC(n2cc(C3=C(c4cn(C)c5ccccc45)C(=O)NC3=O)c3ccccc32)CC1` [Example 41, 3-{1-[1-N-(3-N,N-(Dimethylamino)propyl)-piperidin-4-yl]-indol-3-yl}-4-(1-methyl-indol-3-yl)-1H-pyrrole-2,5-dione]: the IC50 is 0.1 µM on protein kinase C beta-2 (setting [1]); 2 µM on protein kinase C eta (setting [2]); 4 µM on protein kinase C delta (setting [3]); 1 µM at protein kinase C epsilon (setting [4]); 4 µM at protein kinase C gamma (setting [5]); 3 µM on protein kinase C alpha (setting [6]). Further, the IC50 at protein kinase C beta-1 (setting [7]) amounted to 0.2 µM; on protein kinase C zeta (setting [8]), 15 µM.

For the compound `Cn1cc(C2=C(c3cn(CCOC4O[C@H](CO)[C@@H](O)[C@@H](O)[C@H]4N=[N+]=[N-])c4ccccc34)C(=O)NC2=O)c2ccccc21` (some centres unmarked) [Example 60], the IC50 at protein kinase C beta-2 (setting [1]) amounted to 0.042 µM; on protein kinase C eta (setting [2]) it was 3.6 µM; at protein kinase C delta (setting [3]), 7.4 µM; on protein kinase C epsilon (setting [4]), 91 µM; at protein kinase C gamma (setting [5]), 24 µM; at protein kinase C alpha (setting [6]) it was 4.5 µM. For the same compound, the IC50 came out at 0.18 µM at protein kinase C beta-1 (setting [7]) and 75 µM at protein kinase C zeta (setting [8]).

On to `Cc1c(C2=C(c3c(C)n(CN(C)C)c4ccccc34)C(=O)NC2=O)c2ccccc2n1CCCN(C)C` [Example 16], for which the IC50 at protein kinase C beta-2 (setting [1]) came out at 0.6 µM; at protein kinase C eta (setting [2]), 5.6 µM; at protein kinase C delta (setting [3]) it was 8 µM; at protein kinase C epsilon (setting [4]), 10 µM; on protein kinase C gamma (setting [5]), 9.2 µM; at protein kinase C alpha (setting [6]), 39 µM. For the same compound, the IC50 on protein kinase C beta-1 (setting [7]) is 0.7 µM; at protein kinase C zeta (setting [8]) it was 40 µM.

As for `Cn1cc(C2=C(c3cn(C4CCN(CC(F)(F)C(F)(F)C(F)(F)F)CC4)c4ccccc34)C(=O)NC2=O)c2ccccc21` [Example 46, 3-{1-[1-(2,2,3,3,4,4,4-Heptafluoro-butyl)-piperidin-4-yl]-indol-3-yl}-4-(1-methyl-indol-3-yl)-1H-pyrrole-2,5-dione], the IC50 against protein kinase C beta-2 was 0.46 µM; on protein kinase C eta, > 100 µM; against protein kinase C delta it was > 100 µM; at protein kinase C epsilon, > 100 µM; against protein kinase C gamma it was > 100 µM; against protein kinase C alpha, > 100 µM. The values for the IC50 at protein kinase C beta-1 and against protein kinase C zeta were 3 µM and > 100 µM, respectively.

For the compound `CC(=O)NC[C@H]1O[C@H](OCCn2cc(C3=C(c4cn(C)c5ccccc45)C(=O)NC3=O)c3ccccc32)C[C@@H]1O` [Example 3], the IC50 at protein kinase C beta-2 (setting [1]) stood at 0.025 µM; at protein kinase C eta (setting [2]), 1.1 µM; on protein kinase C delta (setting [3]), 0.41 µM; on protein kinase C epsilon (setting [4]), 0.6 µM; on protein kinase C gamma (setting [5]), 4.4 µM; at protein kinase C alpha (setting [6]) it was 0.32 µM. Also, the IC50 is 0.036 µM at protein kinase C beta-1 (setting [7]) and 46 µM at protein kinase C zeta (setting [8]).

As for `CC(=O)NCC1OC(OCCCCn2cc(C3=C(c4cn(C)c5ccccc45)C(=O)NC3=O)c3ccccc32)CC1OC(C)=O` (centres unmarked) [Example 55], the IC50 turned out to be 0.05 µM on protein kinase C beta-2 (setting [1]); 1.2 µM on protein kinase C eta (setting [2]); 0.95 µM at protein kinase C delta (setting [3]); 6.6 µM on protein kinase C epsilon (setting [4]); 4.2 µM on protein kinase C gamma (setting [5]); 2.3 µM at protein kinase C alpha (setting [6]). Besides, the IC50 at protein kinase C beta-1 (setting [7]) stood at 0.26 µM; on protein kinase C zeta (setting [8]) it was 45 µM.

Regarding `Cn1cc(C2=C(c3cn(CCOC4O[C@H](CO)[C@@H](O)[C@@H](N=[N+]=[N-])[C@H]4O)c4ccccc34)C(=O)NC2=O)c2ccccc21` (some centres unmarked) [Example 59], the IC50 turned out to be 0.11 µM at protein kinase C beta-2 (setting [1]); 1.6 µM at protein kinase C eta (setting [2]); 2.8 µM at protein kinase C delta (setting [3]); 31 µM at protein kinase C epsilon (setting [4]); 9 µM at protein kinase C gamma (setting [5]); 4.5 µM at protein kinase C alpha (setting [6]). In addition, the IC50 on protein kinase C beta-1 (setting [7]) is 0.2 µM; at protein kinase C zeta (setting [8]), 48 µM.

On to `Cn1cc(C2=C(c3cn(CCCCOC4C[C@H](O)[C@@H](CO)O4)c4ccccc34)C(=O)NC2=O)c2ccccc21` (some centres unmarked) [Example 56], for which the IC50 at protein kinase C beta-2 (setting [1]) was determined as 0.039 µM; on protein kinase C eta (setting [2]), 1.3 µM; at protein kinase C delta (setting [3]), 0.93 µM; on protein kinase C epsilon (setting [4]) it was 2.4 µM; on protein kinase C gamma (setting [5]), 3.2 µM; at protein kinase C alpha (setting [6]) it was 1.6 µM. Further, the IC50 on protein kinase C beta-1 (setting [7]) was determined as 0.069 µM; on protein kinase C zeta (setting [8]) it was 49 µM.

On to `CC(C)N1CCC(n2cc(C3=C(c4cn(C)c5ccccc45)C(=O)NC3=O)c3ccccc32)CC1` [Example 8, 3-[1-(1-i-Propyl-piperidin-4-yl)-1H-indol-3-yl]-4-(1-methyl-1H-indol-3-yl)-pyrrole-2,5-dione], for which the IC50 at protein kinase C beta-2 (setting [1]) was found to be 0.026 µM; on protein kinase C eta (setting [2]) it was 0.13 µM; on protein kinase C delta (setting [3]), 0.97 µM; at protein kinase C epsilon (setting [4]), 0.39 µM; on protein kinase C gamma (setting [5]) it was 1.3 µM; on protein kinase C alpha (setting [6]) it was 0.34 µM. Besides, the values for the IC50 on protein kinase C beta-1 (setting [7]) and on protein kinase C zeta (setting [8]) were 0.019 µM and 9.3 µM, respectively.
